Key:
Caco-2 cells [1] = experiment: Real-time cell electronic sensing (RT-CES) on Caco-2 cells; format: cell-based, human; conditions: for toxicity by RT-CES, result in words: prolonged exposition time (up to 8 h) versus 30 min MTT; for IC50: up to 8 h treatment, impedance cell index; for concentration up to which non-toxic (RT-CES): up to 8 h
Method: (§1) Caco-2 cell line was obtained from the European Collection of Cell Cultures (ECACC). Cells were grown in plastic cell culture flasks in Dulbecco’s Modified Eagle’s Medium supplemented with 3.7 g/L NaHCO3, 10% (v/v) heat-inactivated fetal bovine serum (FBS), 1% (v/v) non-essential amino acids solution, 1% (v/v) L-glutamine, 100 IU/mL penicillin, and 100 µg/mL streptomycin at 37 °C in an atmosphere of 5% CO2. The cells were routinely maintained by regular passaging. For cytotoxic and transport experiments, cells were used between passage numbers 20 and 40. The culture media were replaced with fresh media in every 72 h.
Real-time cell electronic sensing (RT-CES) is a label-free technique for dynamic monitoring of living cells. The xCELLigence system (Roche, Basel, Switzerland) utilizes an electronic readout called impedance to non-invasively quantify adherence cell proliferation and viability. E-plates (Roche) contain gold microelectronic sensor arrays. The interaction between cells and the electrode generates impedance response that correlates linearly with cell index reflecting cell number, adherence and cell growth. This method is more sensitive and informative than colorimetric end-point assays to test pharmaceutical excipients.
The E-plate was coated with 0.2% rat tail collagen–DW solution for 20 min at 37 °C. Culture media (60 μL) was added to each well for background readings than 100 µL Caco-2 cell suspension was dispensed at the density of 1.5 × 10^4 cells/well. The cells were grown for 2 days. The medium was changed to excipients solutions and the cells in the E-plate were kept in an incubator at 37 °C for 8 h and monitored every 5 min.
The cell index at each time point was defined as (Rn − Rb)/15, where Rn is the cell-electrode impedance of the well when it contains cells and Rb is the background impedance of the well with the media alone.

Caco-2 cells [2] = experiment: MTT cell viability assay on Caco-2 cells; format: cell-based, human; conditions: for concentration up to which no toxic effect (MTT): 30 min; for IC50: 30 min incubation at 37 °C in PBS, mean ± SD
Method: as §1
The MTT assay was performed on Caco-2 cells. The cells were seeded in 96 well plates until the cell monolayer become confluent. The medium was changed once. After one week the medium was removed, the cells were washed with PBS and exposed to increasing concentrations of α-CDs dissolved in phosphate buffer saline (PBS). Cells were incubated for 30 min on 37 °C. Control groups were processed equally and incubated without CD simultaneously. After treatment MTT dye (3-(4,5-dimethylthiazol-2-yl))-2,5-diphenyltetrazolium bromide, 5 mg/mL) was applied to each well for 3 h. MTT solution was removed and isopropanol-hydrochloric acid (25:1) was added to dissolve the formed formazan crystals. The absorbance was measured at 570 nm against a 690 nm reference with a FLUOstar OPTIMA Microplate Reader. Cell viability was expressed as the percentage of untreated control.

human erythrocytes = experiment: Hemolysis test on human red blood cells; format: cell-based; conditions: for HC50: PBS pH 7.2, 37 °C, mean ± SD; for HC50 / concentration up to which not hemolytic: 10 min
Method: Hemolysis test was performed on fresh human blood. Erythrocytes were separated from citrated blood by centrifugation at 2500× g for 10 min.; washed three times with PBS and resuspended in the same solution. Aliquots of the cell suspension with the respective red blood cell number of 5 × 10^7 were added to the buffer solution (PBS pH 7.2) containing increasing concentrations of the samples investigated in the study. After mixing them gently, each solution was incubated at 37 °C for 10 min and then centrifuged at 5000× g. Finally, the absorbance of the hemoglobin released into the supernatant was measured at 540 nm with a FLUOstar OPTIMA Microplate Reader. The percentage of hemolysis was expressed as the ratio of hemoglobin in the supernatant of the sample solutions related to the hemoglobin concentration after the complete hemolysis of erythrocytes in water. The dose-response curve was determined, and the concentration inducing hemolysis in 50% of the erythrocyte population (HC50) was subsequently calculated.

[3] = Solubility of the samples in isotonic PBS; format: physicochemical; conditions: isotonic phosphate buffered saline (PBS)
Method: α-Cyclodextrin derivatives were generously offered by Cyclolab Ltd. (Cyclodextrin Research & Development Laboratory, Budapest, Hungary). […] We investigated each α-CD in 7 different concentrations: 0.01; 0.1; 1; 10; 25; 50 and 100 mM, with the exception of TRIMEA, which was not soluble above 30 mM. The solid samples were dissolved in isotonic phosphate buffered saline (PBS), purchased from Sigma–Aldrich (Budapest, Hungary) (Table 2.)

Row | Compound | concentration up to which no toxic effect (MTT) (Caco-2 cells [2]) [µM] | IC50 (Caco-2 cells [2]) [mM] | HC50 (human erythrocytes) [mM] | IC50 (Caco-2 cells [1]) [mM] | further results
1 | carboxymethylated α-CD sodium salt [CMACD] | > 100000 | > 100 | >100 |  | toxicity by RT-CES, result in words (Caco-2 cells [1]): toxic when the exposition time was prolonged; HC50 (human erythrocytes; listed as carboxymethylated): > 100 mM
2 | succinylated α-CD [SuACD] |  | 19 ± 8.8 | 9.6 ± 0.03 | > 1 | 
3 | COC[C@H]1O[C@@H]2O[C@@H]3[C@@H](OC)[C@@H](OC)[C@@H](O[C@@H]4[C@@H](OC)[C@@H](OC)[C@@H](O[C@@H]5[C@@H](OC)[C@@H](OC)[C@@H](O[C@@H]6[C@@H](OC)[C@@H](OC)[C@@H](O[C@@H]7[C@@H](OC)[C@@H](OC)[C@@H](O[C@@H]1[C@@H](OC)[C@H]2OC)O[C@@H]7COC)O[C@@H]6COC)O[C@@H]5COC)O[C@@H]4COC)O[C@@H]3COC [TRIMEA, hexakis-(2,3,6-tri-O-methyl)-α-CD] |  | 1.8 ± 0.8 | 1.9 ± 0.01 | > 1 | solubility limit [3]: ≤ 30 mM
4 | (2-hydroxy) propyl α-CD [HPACD] | > 100000 | > 100 | >100 | > 100 | concentration up to which non-toxic (RT-CES) (Caco-2 cells [1]): > 100000 µM; concentration up to which not hemolytic (human erythrocytes): > 100000 µM; HC50 (human erythrocytes; listed as Hydroxypropyl): > 100 mM
5 | acetylated α-CD [AcACD] | > 100000 | > 100 | >100 | > 100 | concentration up to which non-toxic (RT-CES) (Caco-2 cells [1]): > 100000 µM; concentration up to which not hemolytic (human erythrocytes): > 100000 µM; HC50 (human erythrocytes; listed as acetyl): > 100 mM
6 | sulfated α-CD | > 100000 | > 100 | >100 |  | toxicity by RT-CES, result in words (Caco-2 cells [1]): toxic when the exposition time was prolonged
7 | randomly methylated α-CD [RAMEA] |  | 78.6 ± 15.8 | 15.5 ± 0.01 |  | 
8 | phosphated α-CD sodium salt |  | 7.8 ± 8.6 | >100 |  | hemolysis, result in words (human erythrocytes): did not result in hemolysis
9 | OC[C@H]1O[C@@H]2O[C@H]3[C@H](O)[C@@H](O)[C@@H](O[C@H]4[C@H](O)[C@@H](O)[C@@H](O[C@H]5[C@H](O)[C@@H](O)[C@@H](O[C@H]6[C@H](O)[C@@H](O)[C@@H](O[C@H]7[C@H](O)[C@@H](O)[C@@H](O[C@H]1[C@H](O)[C@H]2O)O[C@@H]7CO)O[C@@H]6CO)O[C@@H]5CO)O[C@@H]4CO)O[C@@H]3CO [native, α-cyclodextrin] |  |  | 16.0 ± 0.02 |  | IC50 (Caco-2 cells [1]; Homo sapiens): > 25 mM; IC50 (Caco-2 cells [2]; Homo sapiens, 0.5 h): 46.1 ± 9.2 mM; HC50 (human erythrocytes; listed as Native α-CD): 16 mM

— publication PMC6332255, “Evaluation of the Cytotoxicity of α-Cyclodextrin Derivatives on the Caco-2 Cell Line and Human Erythrocytes” (Molecules, 2015)
